Experimental data as given in US12065442B2, “Tropomyosin receptor kinase (TRK) degradation compounds and methods of use” (Cullgen (Shanghai), Inc., priority 2018, dated 2024).
Like-named read-outs stand apart in the source and are kept apart here.

Test system: KM12 cells
Assay: Cell viability assay (CellTiter-Glo) in KM12 cells
Format: cell-based
Conditions: Homo sapiens, 72 h, KM12 cell viability, CellTiter-Glo, 3 days, read-out: IC50

| SMILES | IC50 (Table 3) [nM] | other results |
| --- | --- | --- |
| O=C(CN1CCN(c2cccc(-c3cnc4ccc(N5CCC[C@@H]5c5cccc(F)c5)nn34)n2)CC1)NCCCCCCNc1ccc2c(c1)C(=O)N(C1CCC(=O)NC1=O)C2=O (stereo partly drawn) [TR-128, N-(6-((2-(2,6-dioxopiperidin-3-yl)-1,3-dioxoisoindolin-5-yl)amino)hexyl)-2-(4-(6-(6-((R)-2-(3-fluorophenyl)pyrrolidin-1-yl)imidazo[1,2-b]pyridazin-3-yl)pyridin-2-yl)piperazin-1-yl)acetamide] | 3.3 |  |
| O=C1CCC(N2C(=O)c3cccc(NCCCCC(=O)N4CCN(c5cccc(-c6cnc7ccc(N8CCC[C@@H]8c8cccc(F)c8)nn67)n5)CC4)c3C2=O)C(=O)N1 (stereo partly drawn) [CPD-014, 2-(2,6-Dioxopiperidin-3-yl)-4-((5-(4-(6-(6-((R)-2-(3-fluorophenyl)pyrrolidin-1-yl)imidazo[1,2-b]pyridazin-3-yl)pyridin-2-yl)piperazin-1-yl)-5-oxopentyl)amino)isoindoline-1,3-dione] |  | IC50 (Table 2): 7.9 nM |
| Cc1ncsc1-c1ccc(CNC(=O)[C@@H]2C[C@@H](O)CN2C(=O)[C@@H](NC(=O)CCCCCCCC(=O)N2CCN(c3cccc(-c4cnc5ccc(N6CCC[C@@H]6c6cccc(F)c6)nn45)n3)CC2)C(C)(C)C)cc1 [CPD-018, (2S,4R)-1-((S)-2-(9-(4-(6-(6-((R)-2-(3-Fluorophenyl)pyrrolidin-1-yl)imidazo[1,2-b]pyridazin-3-yl)pyridin-2-yl)piperazin-1-yl)-9-oxononanamido)-3,3-dimethylbutanoyl)-4-hydroxy-N-(4-(4-methylthiazol-5-yl)benzyl)pyrrolidine-2-carboxamide] |  | IC50 (Table 2): 258 nM |
| O=C(CN1CCN(c2cccc(-c3cnc4ccc(N5CCC[C@@H]5c5cccc(F)c5)nn34)n2)CC1)NCCCCCCCCNc1ccc2c(c1)C(=O)N(C1CCC(=O)NC1=O)C2=O (stereo partly drawn) [TR-133, N-(8-((2-(2,6-dioxopiperidin-3-yl)-1,3-dioxoisoindolin-5-yl)amino)octyl)-2-(4-(6-(6-((R)-2-(3-fluorophenyl)pyrrolidin-1-yl)imidazo[1,2-b]pyridazin-3-yl)pyridin-2-yl)piperazin-1-yl)acetamide] | 22.8 |  |
| O=C1CCC(N2Cc3cc(C#CCN4CCN(c5cccc(-c6cnc7ccc(N8CCC[C@@H]8c8cccc(F)c8)nn67)n5)CC4)ccc3C2=O)C(=O)N1 (stereo partly drawn) [TR-188, 3-(5-(3-(4-(6-(6-((R)-2-(3-Fluorophenyl)pyrrolidin-1-yl)imidazo[1,2-b]pyridazin-3-yl)pyridin-2-yl)piperazin-1-yl)prop-1-yn-1-yl)-1-oxoisoindolin-2-yl)piperidine-2,6-dione] | 16.8 |  |
| O=C(CN1CCN(c2cccc(-c3cnc4ccc(N5CCC[C@@H]5c5cccc(F)c5)nn34)n2)CC1)NCCCCCCNc1cccc2c1C(=O)N(C1CCC(=O)NC1=O)C2=O (stereo partly drawn) [TR-111, N-(6-((2-(2,6-dioxopiperidin-3-yl)-1,3-dioxoisoindolin-4-yl)amino)hexyl)-2-(4-(6-(6-((R)-2-(3-fluorophenyl)pyrrolidin-1-yl)imidazo[1,2-b]pyridazin-3-yl)pyridin-2-yl)piperazin-1-yl)acetamide] | 19.7 |  |
| Cc1ncsc1-c1ccc(CNC(=O)[C@@H]2C[C@@H](O)CN2C(=O)[C@@H](NC(=O)CCCCCCCCC(=O)N2CCN(c3cccc(-c4cnc5ccc(N6CCC[C@@H]6c6cccc(F)c6)nn45)n3)CC2)C(C)(C)C)cc1 [CPD-017, (2S,4R)-1-((S)-2-(10-(4-(6-(6-((R)-2-(3-Fluorophenyl)pyrrolidin-1-yl)imidazo[1,2-b]pyridazin-3-yl)pyridin-2-yl)piperazin-1-yl)-10-oxodecanamido)-3,3-dimethylbutanoyl)-4-hydroxy-N-(4-(4-methylthiazol-5-yl)benzyl)pyrrolidine-2-carboxamide] |  | IC50 (Table 2): 145 nM |
| O=C(CN1CCN(c2cccc(-c3cnc4ccc(N5CCC[C@@H]5c5cccc(F)c5)nn34)n2)CC1)NCCOCCNc1cccc2c1C(=O)N(C1CCC(=O)NC1=O)C2=O (stereo partly drawn) [TR-106, N-(2-(2-((2-(2,6-dioxopiperidin-3-yl)-1,3-dioxoisoindolin-4-yl)amino)ethoxy)ethyl)-2-(4-(6-(6-((R)-2-(3-fluorophenyl)pyrrolidin-1-yl)imidazo[1,2-b]pyridazin-3-yl)pyridin-2-yl)piperazin-1-yl)acetamide] | 3.8 |  |
| O=C1CCC(N2C(=O)c3cccc(NCCOCCC(=O)N4CCN(c5ccc(C(=O)Nc6n[nH]c7ccc(Cc8cc(F)cc(F)c8)cc67)c(NC6CCOCC6)c5)CC4)c3C2=O)C(=O)N1 (centres unmarked) [CPD-030, N-(5-(3,5-Difluorobenzyl)-1H-indazol-3-yl)-4-(4-(3-(2-((2-(2,6-dioxopiperidin-3-yl)-1,3-dioxoisoindolin-4-yl)amino)ethoxy)propanoyl)piperazin-1-yl)-2-((tetrahydro-2H-pyran-4-yl)amino)benzamide] |  | IC50 (Table 2): 20.5 nM |
| O=C1CCC(N2Cc3cc(CCCN4CCN(c5cccc(-c6cnc7ccc(N8CCC[C@@H]8c8cccc(F)c8)nn67)n5)CC4)ccc3C2=O)C(=O)N1 (stereo partly drawn) [TR-186, 3-(5-(3-(4-(6-(6-((R)-2-(3-fluorophenyl)pyrrolidin-1-yl)imidazo[1,2-b]pyridazin-3-yl)pyridin-2-yl)piperazin-1-yl)propyl)-1-oxoisoindolin-2-yl)piperidine-2,6-dione] | 5.8 |  |
| O=C1CCC(N2Cc3ccc(NCC(=O)N4CCN(c5cccc(-c6cnc7ccc(N8CCC[C@@H]8c8cccc(F)c8)nn67)n5)CC4)cc3C2=O)C(=O)N1 (stereo partly drawn) [TR-189, 3-(6-((2-(4-(6-(6-((R)-2-(3-fluorophenyl)pyrrolidin-1-yl)imidazo[1,2-b]pyridazin-3-yl)pyridin-2-yl)piperazin-1-yl)-2-oxoethyl)amino)-1-oxoisoindolin-2-yl)piperidine-2,6-dione] | 2.5 |  |
| O=C1CCC(N2C(=O)c3ccc(NC(=O)C4CN(c5cccc(-c6cnc7ccc(N8CCC[C@@H]8c8cccc(F)c8)nn67)n5)C4)cc3C2=O)C(=O)N1 (stereo partly drawn) [TR-209, N-(2-(2,6-Dioxopiperidin-3-yl)-1,3-dioxoisoindolin-5-yl)-1-(6-(6-((R)-2-(3-fluorophenyl)pyrrolidin-1-yl)imidazo[1,2-b]pyridazin-3-yl)pyridin-2-yl)azetidine-3-carboxamide] |  | IC50 (Table 4): > 500 nM |
| O=C1CCC(N2C(=O)c3ccc(NCCOCCOCCOCCC(=O)N4CCN(c5ccc(C(=O)Nc6n[nH]c7ccc(Cc8cc(F)cc(F)c8)cc67)c(NC6CCOCC6)c5)CC4)cc3C2=O)C(=O)N1 (centres unmarked) [TR-146, N-(5-(3,5-Difluorobenzyl)-1H-indazol-3-yl)-4-(4-(3-(2-(2-(2-((2-(2,6-dioxopiperidin-3-yl)-1,3-dioxoisoindolin-5-yl)amino)ethoxy)ethoxy)ethoxy)propanoyl)piperazin-1-yl)-2-((tetrahydro-2H-pyran-4-yl)amino)benzamide] | 4.2 |  |
| O=C1CCC(N2C(=O)c3cccc(NCCOCCOCCOCCOCCOCCC(=O)N4CCN(c5cccc(-c6cnc7ccc(N8CCC[C@@H]8c8cccc(F)c8)nn67)n5)CC4)c3C2=O)C(=O)N1 (stereo partly drawn) [CPD-025, 2-(2,6-Dioxopiperidin-3-yl)-4-((18-(4-(6-(6-((R)-2-(3-fluorophenyl)pyrrolidin-1-yl)imidazo[1,2-b]pyridazin-3-yl)pyridin-2-yl)piperazin-1-yl)-18-oxo-3,6,9,12,15-pentaoxaoctadecyl)amino)isoindoline-1,3-dione] |  | IC50 (Table 2): 16.7 nM |
| O=C1CCC(N2C(=O)c3ccc(N4CCN(c5cccc(-c6cnc7ccc(N8CCC[C@@H]8c8cccc(F)c8)nn67)n5)CC4)cc3C2=O)C(=O)N1 (stereo partly drawn) [TR-170, 2-(2,6-Dioxopiperidin-3-yl)-5-(4-(6-(6-((R)-2-(3-fluorophenyl)pyrrolidin-1-yl)imidazo[1,2-b]pyridazin-3-yl)pyridin-2-yl)piperazin-1-yl)isoindoline-1,3-dione] | 15.1 |  |
| COc1ccc(CN(CCN2CCN(c3cccc(-c4cnc5ccc(N6CCC[C@@H]6c6cccc(F)c6)nn45)n3)CC2)c2ccc3c(c2)C(=O)N(C2CCC(=O)NC2=O)C3=O)cc1 (stereo partly drawn) [TR-214, 2-(2,6-Dioxo-3-piperidyl)-5-(2-(4-(6-(6-((2R)-2-(3-fluorophenyl)pyrrolidin-1-yl)imidazo[1,2-b]pyridazin-3-yl)-2-pyridyl)piperazin-1-yl)ethyl-((4-methoxyphenyl)methyl)amino)isoindoline-1,3-dione] |  | IC50 (Table 4): 2.7 nM |
| O=C1CCC(N2C(=O)c3ccc(N4CC(CN5CCC(N6CCC=C(c7cnc8ccc(N9CCC[C@@H]9c9cccc(F)c9)nn78)C6)CC5)C4)cc3C2=O)C(=O)N1 (stereo partly drawn) [TR-230, 2-(2,6-Dioxopiperidin-3-yl)-5-(3-((4-(5-(6-((R)-2-(3-fluorophenyl)pyrrolidin-1-yl)imidazo[1,2-b]pyridazin-3-yl)-3,6-dihydropyridin-1(2H)-yl)piperidin-1-yl)methyl)azetidin-1-yl)isoindoline-1,3-dione] |  | IC50 (Table 4): > 500 nM |
| O=C1CCC(N2C(=O)c3ccc(NCCNC4CN(c5cccc(-c6cnc7ccc(N8CCC[C@@H]8c8cccc(F)c8)nn67)n5)C4)cc3C2=O)C(=O)N1 (stereo partly drawn) [TR-192, 2-(2,6-Dioxopiperidin-3-yl)-5-((2-((1-(6-(6-((R)-2-(3-fluorophenyl)pyrrolidin-1-yl)imidazo[1,2-b]pyridazin-3-yl)pyridin-2-yl)azetidin-3-yl)amino)ethyl)amino)isoindoline-1,3-dione] | 103 |  |
| O=C1CCC(N2Cc3ccc(OCCN4CCN(c5cccc(-c6cnc7ccc(N8CCC[C@@H]8c8cccc(F)c8)nn67)n5)CC4)cc3C2=O)C(=O)N1 (stereo partly drawn) [TR-201, 3-(6-(2-(4-(6-(6-((R)-2-(3-fluorophenyl)pyrrolidin-1-yl)imidazo[1,2-b]pyridazin-3-yl)pyridin-2-yl)piperazin-1-yl)ethoxy)-1-oxoisoindolin-2-yl)piperidine-2,6-dione] | > 500 |  |
| O=C1CCC(N2C(=O)c3ccc(NCCOCCC(=O)N4CCN(c5cccc(-c6cnc7ccc(N8CCC[C@@H]8c8cccc(F)c8)nn67)n5)CC4)cc3C2=O)C(=O)N1 (stereo partly drawn) [TR-119, 2-(2,6-Dioxopiperidin-3-yl)-5-((2-(3-(4-(6-(6-((R)-2-(3-fluorophenyl)pyrrolidin-1-yl)imidazo[1,2-b]pyridazin-3-yl)pyridin-2-yl)piperazin-1-yl)-3-oxopropoxy)ethyl)amino)isoindoline-1,3-dione] | 1.6 |  |
